Patent US6297230A, “Cyanoaziridines for treating cancer” (priority 2000, dated 2001)
Read-outs that look alike come from different tables or passages of the source.

How the values were obtained:
8226/S myeloma cells = test: MTT growth inhibition, parental 8226 myeloma cells; assay type: cell-based, human; settings: Homo sapiens, read-out: IC50
Method: (§1) Microculture Tetrazolium (MTT) Assay for Tumor Cells
(§2) Tumors are disaggregated into single cell suspensions using mechanical, hypoosmotic, and/or enzymatic (trypsin) methods. The cells are plated at a concentration of 3-5×10^4 per […] well into plastic 96-well plates. Growth medium containing 5-10% (vol/vol) heat-inactivated fetal bovine serum and penicillin/streptomycin (both […]) are added prior to incubation at 37° C. for 6 days. Afterwards the medium containing the drug is removed, the cells are centrifuged in fresh medium or phosphate-buffered saline (pH 7.4). A tetrazolium dye, […]-2,5-diphenyl tetrazolium (MTT), is then added. (Mossman, T., J Immunol 65:55-63, 1983.) This dye forms a colored formazan product upon activation by mitochondrial reductases in viable cells. Typically, the formazan product is solubilized in acid-propanol or DMSO. The intensity of the color is proportional to viable cell numbers and this is quantitated by spectrophotometric absorbance at 570 nm on a micro ELISA plate reader. The results are calibrated in % control absorbance from untreated tumor cells. (Alley, et al., Cancer Res 48:589-601, 1988.)
(§3) The following unpublished studies were performed in vitro to develop and characterize a human myeloma cell line with resistance to imexon-induced cytotoxicity. The original (parental) 8226 cell line was developed by Matsuoka, et al. (Matsuoka, et al., Proc Soc Exp Biol Med 125:1246-1250, 1967). It is a lymphoblastoid cell line which stains for lambda light immunoglobulin production. It grows in vitro in suspension culture (non-adherent) and forms tumors when injected into SCID mice. (Skehan, et al., J Natl Cancer Inst 82:1107-1112, 1990.)
(§4) One exciting feature of our novel compounds is, that they work on imexon-resistant cells. An imexon-resistant 8226 myeloma cell line was selected by continuously exposing cells to gradually increasing concentrations of imexon up to 3.25 mg/mL. This cell line has slightly longer cell doubling time than 8226 sensitive cells (24 vs 20 hours). […] The dose response curve for imexon continuous exposure was determined using MTT assay. Each data point represents the mean of three experiments performed in 8 replicates.
(§5) We compared IC50 concentrations and there is a 4-fold resistance observed for the 8226/I-R cell line when the cells were continuously exposed to imexon for […] at 37° C. The degree of resistance was relatively unstable in the absence of the drug, with the resistant cells losing substantial resistance when maintained in imexon-free medium for 20 weeks (FIG. 2).
(§6) IC50 was measured by MTT assay. IC50 refer to the concentration by drug that results in 50% growth inhibition. A minimum of 2 assays were performed for each drug following 250 mg/mL imexon is equivalent to 6.5 cGy radiation in sensitive cells.
(§7) Using the colorimetric microculture tetrazolium (MTT) assay, imexon and 25-related analogs were studied for tumor growth inhibition in vitro. Imexon-induced DNA single strand breaks were assessed by alkaline elution. Cells were exposed to imexon for 1 hour prior to start of experiment. The fraction of ^14 C-labeled DNA retained on the filter is plotted against the time of elution. The cells included parental 8226 myeloma cells and the 8226 imexon-resistant cells exposed to drug (imexon or analog) continuously for 10 days at 37° C. At the end of the exposure period, the cells were analyzed for viability using the formazan-forming tetrazolium dye (MTT) assay.

8226/I-R myeloma cells = test: MTT growth inhibition, imexon-resistant 8226 myeloma cells; assay type: cell-based, human; settings: for IC50: Homo sapiens, read-out: IC50; for Fold Resistance (IC50 resistant cells/IC50 sensitive cells): Table 4, 8226/I-R vs 8226/S
Method: as §1, §2, §3, §4, §5, §6, §7

[1] = test system: DNA of 8226 myeloma cells; test: Imexon-induced DNA single strand breaks by alkaline elution; assay type: cell-based, human; settings: for DNA single strand breaks: 8226 cells, 10-500 μg/mL
Method: as §7
These strand breaks are noted by an enhanced rate of ^14 C-DNA elution through the filters after a one-hour exposure to imexon (10-500 μg/mL) at 30° C. At high imexon concentrations of≥100 μg/mL, over 75% of the radiolabeled DNA is eluted through the filters over the test period. By comparison, control cell DNA is highly retained (>95%) on the filter over the same 24-hour elution period.

Myelosuppression = settings: in vivo
Oral activity in mice = assay type: in vivo
[2] = Tolerability and activity on prolonged dosing in tumor-bearing mice and dogs; assay type: in vivo; settings: suggested by prior studies in mice and dogs
[3] = test system: AIDS-related lymphoma / lymphoma cells; test: Activity against lymphoma cells in vitro; assay type: cell-based; settings: Table 1B
[4] = test system: human prostate cancer tumors; test: Activity in prostate cancer in SCID mouse model; assay type: in vivo, human tumors in SCID mice; settings: Table 1B
[5] = test system: advanced solid tumors in cancer patients; settings: cited from earlier work; for Clinical response: Phase I clinical trials
[6] = cited from earlier work
human tumor cell lines = settings: in culture; cited from earlier work
[7] = test system: multiple myeloma (clonogenic assay); settings: cited from earlier work
transplanted tumors = settings: rodents; cited from earlier work
[8] = test system: human lymphoma, melanoma, and prostate cancer cell lines; settings: cited from earlier work
mast cell tumors = settings: cited from earlier work
[9] = background statement; cited from earlier work
MCF-7/MITOX cells = settings: cited from earlier work
[10] = test system: OVCAR-3 ovarian carcinoma cells; settings: cited from earlier work
[11] = test system: L-1210 MDR leukemia cells; settings: cited from earlier work
WiDr MITOX cells = settings: cited from earlier work
MCF-7/ADR cells = settings: cited from earlier work
MCF-7/D40 cells = settings: MCF-7/DOX40; cited from earlier work

**Q.** What does the source list for `N=C1NC(=O)N2CC12` (stereo not shown) [AMP 400, 4-imino-1,3-diazabicyclo[3.1.0]hexan-2-one]?
**A.** IC50 (8226/S myeloma cells; 8226/S, MTT): 27 µM; IC50 (8226/S myeloma cells; Table 5, Sensitive (parental) 8226): 1 µg/mL; IC50 (8226/I-R myeloma cells; 8226/I-R, MTT): 120 µM; IC50 (8226/I-R myeloma cells; Table 5, imexon-resistant 8226): 8.5 µg/mL; Fold Resistance (IC50 resistant cells/IC50 sensitive cells) (8226/I-R myeloma cells): 4.44; Fold Resistance of IC50 R/IC50 's (8226/I-R myeloma cells; Table 5, imexon-resistant vs sensitive 8226): 4.5; Fold resistance (8226/I-R myeloma cells; continuous exposure for 5 days at 37° C): 4 fold; DNA single strand breaks ([1]; one-hour exposure, listed as Imexon): induced single strand breaks in both 8226 imexon-sensitive and resistant cells; DNA single strand breaks ([1]; one-hour exposure, listed as imexon): induces concentration-dependent single-stranded breaks in tumor cell DNA; DNA strand breaks, resistant vs sensitive cells ([1]; given dose of imexon, p<0.05): fewer strand breaks in imexon-resistant cells than in sensitive cells; Radiolabeled DNA eluted over the test period ([1]; imexon ≥100 μg/mL, one-hour exposure): over 75%; Radiation equivalent of 250 mg/mL imexon ([1]; sensitive cells, 250 μg/mL imexon): 6.5 cGy; Myelosuppression (Myelosuppression): has not demonstrated myelosuppressive toxicity; Oral activity (Oral activity in mice): not active orally in mice; Maximally-tolerated human dose [2]: approximately 500 mg/m^2 /day; Activity in lymphoma in vitro [3]: active in vitro; Activity in prostate cancer [4]: active in; Clinical response ([5]; listed as Imexon): produced objective responses or stabilized neoplastic diseases in cancer patients; Clinical response ([5]; listed as parent compound): parent compound; Additional patients with disease stabilization ([5]; advanced tumors): 8 patients; Duration of disease stabilization ([5]; advanced tumors): 4-24 months; Objective responses, evaluable patients ([5]; breast cancer): 1/7; Duration of complete disappearance of measurable disease ([5]; lung cancer): 33 months; Objective responses, evaluable patients ([5]; lung cancer): 1/7; Duration of complete disappearance of measurable disease ([5]; melanoma): 42 months; Objective responses, evaluable patients ([5]; melanoma): 1/7; Stable disease, number of patients ([5]; one NSCLC, four breast cancer, one liver cancer): 6 patients; Duration of complete remission ([5]; one patient, metastatic NSCLC): over 14 years; Tolerability ([6]; Phase I, Europe, 1985): well tolerated; Nausea (mild, transient) ([6]; patients): 13%; Vomiting ([6]; patients): 23%; Activity against human tumor cell lines (human tumor cell lines): active against a variety of human tumor cell lines in culture; Cytotoxicity to multiple myeloma [7]: selectively cytotoxic to multiple myeloma in the clonogenic assay; Activity against transplanted tumors (transplanted tumors): active against a variety of transplanted tumors in rodents; Activity against human tumor cell lines in SCID mice [8]: active against human lymphoma, melanoma, and prostate cancer cell lines in SCID mice; Objective responses in dogs (mast cell tumors): Objective responses were observed in dogs with mast cell tumors; Myelosuppression [9]: not myelosuppressive

**Q.** With `COc1cccc2c1C(=O)c1c(O)c3c(c(O)c1C2=O)C[C@@](O)(C(=O)CO)C[C@@H]3O[C@H]1C[C@H](N)[C@H](O)[C@H](C)O1` [Doxorubicin] as the molecule, how does the IC50 (8226/S myeloma cells; 8226/S, MTT) read?
**A.** 0.00043 µM

**Q.** What about the “Cross-resistance of imexon-resistant cells” value (8226/I-R myeloma cells; 8226 imexon-resistant cells, MTT) of the same molecule?
**A.** remains sensitive

**Q.** And the IC50 (8226/I-R myeloma cells; 8226/I-R, MTT)?
**A.** 0.00032 µM

**Q.** And the “Fold Resistance (IC50 resistant cells/IC50 sensitive cells)” value (8226/I-R myeloma cells)?
**A.** 0.79

**Q.** What about the “Resistance of MCF-7/MITOX” value (MCF-7/MITOX cells) of the same molecule?
**A.** only partially resistant

**Q.** What about the “Resistance of OVCAR-3” value [10] of the same molecule?
**A.** resistant in vitro to clinically relevant concentrations

**Q.** What about the “Cross-resistance of L-1210 MDR” value [11] of the same molecule?
**A.** cross-resistant

**Q.** And the “Fold resistance of WiDr MITOX cells” value (WiDr MITOX cells)?
**A.** 8 fold

**Q.** And the “Decrease in sensitivity to doxorubicin” value (MCF-7/ADR cells)?
**A.** 192 fold

**Q.** Which results are given for `COc1ccc(CCN(C)CCCC(C#N)(c2ccc(OC)c(OC)c2)C(C)C)cc1OC` (stereo not shown) [verapamil]?
**A.** Reversal of resistance (MCF-7/D40 cells): sensitized (resistance reversed); Reversal of resistance (MCF-7/MITOX cells): resistance is not modulated (reversed); Reversal of resistance [11]: resistance can be reversed
